# Test results reported in patent US5935945A, “Methods of treating or preventing cardiac arrhythmia” (Merck & Co., Inc., priority 1997, dated 1999).
# Where two headings read alike, the source gives them in different places.
# What was measured:
# [1] = tested on: IK1 (inward rectifier K^+ current); test: Voltage-clamp measurement of IK1 in guinea pig ventricular myocytes; format: cell-based; conditions: @ 3 μM
# Protocol: (§1) Guinea pig ventricular myocytes were isolated using a modification of the procedure described by Mitra et al., Am. J. Physiol. 249:H1056-60 (1985). Excised hearts were perfused through the aorta (retrograde fashion) at a rate of 10 ml/min with oxygenated, warmed (37° C.) solutions described below. The heart was initially perfused for 7 minutes with a Tyrode's solution containing, (in mM): 132 NaCl, 4 KCl, 1.2 MgCl2, 10 HEPES, 5 glucose, pH=7.2. The heart was then perfused with the same nominally Ca^2+ -free solution containing 150 units/ml Type II collagenase (Worthington) and 0.5 units/ml Type XIV protease (Sigma) for 8 minutes. This perfusate was followed by a Tyrode's solution containing 0.2 mM CaCl2 (without enzymes) for 5 minutes. The digested ventricles were cut into small pieces and gently shaken until cells were visibly dispersed. The cells were stored at room temperature until use, within 8 hours after isolation.
# (§2) The suction microelectrode technique described by Giles, W. R. and Shibata, E. F., "Voltage clamp of bull-frog cardiac pacemaker cells: a quantitative analysis of potassium currents", J. Physiol. 368:265-292 (1985) was used to voltage clamp the cells. Microelectrodes were made by using a two stage puller from square bore (1.0 mm o.d.) borosilicate capillary tubing. Pipettes were filled with 0.5 M K gluconate, 25 mM KCl and 5 mM K2 ATP. The electrodes had resistances of 3 to 7 M.OMEGA. when filled with this solution. After establishing whole-cell recording mode, negative pressure was maintained on the pipette using a 1 ml gas-tight syringe attached via air tight tubing to the suction port of the microelectrode holder. This minimized dialysis of the cell with the pipette solution.
# (§3) To record K^+ currents, the cells were bathed in a Ca^2+ -free Tyrode's solution containing […]. […] To record Ca^2+ currents, the cells were bathed in Tyrode's solution containing 1.8 mM Ca^2+ without nisoldipine. The cell chamber was superfused with solutions at a rate of 1-2 ml/minute, while maintaining the temperature at 35±1° C. A List EPC-7 clamp amplifier was used to voltage clamp the isolated cells. […] (Sanguinetti M. C. and Jurkiewicz, N. K., "Two components of cardiac delayed rectifier K^+ current: Differential sensitivity to block by Class III antiarrhythmic agents", J. Gen Physiol 1990; 96:194-214.) Data was analyzed as % block from control membrane currents.
# (§4) Nisoldipine was prepared as a 4 mM stock solution in polyethylene glycol 200. […] At the final concentrations used neither polyethylene glycol 200 nor dimethyl sulfoxide had any effect on any of the measured membrane currents.
# (§5) Selectivity for block of cardiac K^+ channels, IK1, IKr, and IKs was determined as previously described in guinea pig ventricular myocytes (U.S. Pat. No. 5,428,031).
# [2] = molecular target: T1, IKr (rapidly activating delayed rectifier K^+ current) (Cavia porcellus, UniProt O08703); test: Voltage-clamp measurement of IKr in guinea pig ventricular myocytes; format: cell-based; conditions: @ 3 μM; read-out: % Block (Guinea Pig Ventricle) IKr
# T1 construct: Guinea pig ventricular myocytes were isolated; from tissue; host or cells: isolated guinea pig ventricular myocytes
# T1 sequence (O08703 1-1294): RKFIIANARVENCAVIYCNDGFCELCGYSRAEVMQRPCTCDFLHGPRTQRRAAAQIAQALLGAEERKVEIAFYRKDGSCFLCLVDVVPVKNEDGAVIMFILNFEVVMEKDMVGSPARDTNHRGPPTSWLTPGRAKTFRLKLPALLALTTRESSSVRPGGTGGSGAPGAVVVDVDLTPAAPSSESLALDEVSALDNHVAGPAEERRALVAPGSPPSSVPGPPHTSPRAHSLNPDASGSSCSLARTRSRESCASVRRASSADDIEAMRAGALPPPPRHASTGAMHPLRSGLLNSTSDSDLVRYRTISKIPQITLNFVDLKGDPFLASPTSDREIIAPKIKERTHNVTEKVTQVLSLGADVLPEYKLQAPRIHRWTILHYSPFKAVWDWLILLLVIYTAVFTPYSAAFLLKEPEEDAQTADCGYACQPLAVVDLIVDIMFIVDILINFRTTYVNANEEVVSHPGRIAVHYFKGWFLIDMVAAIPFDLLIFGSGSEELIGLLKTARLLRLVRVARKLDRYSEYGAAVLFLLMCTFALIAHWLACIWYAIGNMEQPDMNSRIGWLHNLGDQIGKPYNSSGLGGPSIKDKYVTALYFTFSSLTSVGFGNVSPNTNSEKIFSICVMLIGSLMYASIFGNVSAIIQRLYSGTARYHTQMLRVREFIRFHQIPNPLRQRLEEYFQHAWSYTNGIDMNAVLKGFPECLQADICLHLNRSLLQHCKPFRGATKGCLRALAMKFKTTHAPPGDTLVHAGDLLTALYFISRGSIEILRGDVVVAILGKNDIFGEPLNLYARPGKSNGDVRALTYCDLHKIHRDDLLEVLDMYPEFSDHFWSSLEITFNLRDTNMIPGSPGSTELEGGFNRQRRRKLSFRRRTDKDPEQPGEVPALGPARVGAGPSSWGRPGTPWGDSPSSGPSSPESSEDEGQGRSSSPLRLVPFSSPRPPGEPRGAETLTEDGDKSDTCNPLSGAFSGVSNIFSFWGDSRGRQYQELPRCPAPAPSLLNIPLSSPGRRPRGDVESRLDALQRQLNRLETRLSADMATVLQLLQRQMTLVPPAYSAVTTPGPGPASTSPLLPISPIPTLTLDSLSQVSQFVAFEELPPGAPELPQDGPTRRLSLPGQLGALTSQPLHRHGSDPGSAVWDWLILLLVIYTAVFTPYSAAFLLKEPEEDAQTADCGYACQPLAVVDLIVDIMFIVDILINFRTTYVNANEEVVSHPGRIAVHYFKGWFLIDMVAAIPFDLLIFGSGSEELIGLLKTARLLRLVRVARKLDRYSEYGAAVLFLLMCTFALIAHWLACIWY
# Protocol: as §1, §2, §3, §4, §5
# [3] = molecular target: T2, IKs (slowly activating delayed rectifier K^+ current) (Cavia porcellus, UniProt O70344); test: Voltage-clamp measurement of IKs in guinea pig ventricular myocytes; format: cell-based; conditions: @ 3 μM; read-out: % Block (Guinea Pig Ventricle) IKs
# T2 construct: Guinea pig ventricular myocytes were isolated; from tissue; host or cells: isolated guinea pig ventricular myocytes
# T2 sequence (O70344 whole entry): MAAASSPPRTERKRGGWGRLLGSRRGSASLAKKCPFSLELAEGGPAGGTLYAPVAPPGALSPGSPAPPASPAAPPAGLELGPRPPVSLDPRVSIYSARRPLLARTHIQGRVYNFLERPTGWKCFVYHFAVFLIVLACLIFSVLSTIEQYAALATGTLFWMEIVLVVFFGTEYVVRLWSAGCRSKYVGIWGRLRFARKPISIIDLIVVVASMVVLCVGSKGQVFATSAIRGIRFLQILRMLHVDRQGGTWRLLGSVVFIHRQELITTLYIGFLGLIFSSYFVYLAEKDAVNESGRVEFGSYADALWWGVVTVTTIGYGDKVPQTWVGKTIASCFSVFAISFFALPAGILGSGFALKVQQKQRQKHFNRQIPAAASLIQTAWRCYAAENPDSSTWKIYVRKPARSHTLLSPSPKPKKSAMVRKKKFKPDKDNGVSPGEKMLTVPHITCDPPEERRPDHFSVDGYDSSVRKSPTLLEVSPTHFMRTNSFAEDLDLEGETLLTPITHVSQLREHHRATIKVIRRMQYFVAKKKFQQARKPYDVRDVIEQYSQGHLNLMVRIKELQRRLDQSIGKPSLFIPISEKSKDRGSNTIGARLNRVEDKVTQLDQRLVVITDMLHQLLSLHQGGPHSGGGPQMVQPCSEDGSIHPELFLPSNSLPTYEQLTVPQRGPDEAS
# T2 sequence (Q60409 whole entry partner): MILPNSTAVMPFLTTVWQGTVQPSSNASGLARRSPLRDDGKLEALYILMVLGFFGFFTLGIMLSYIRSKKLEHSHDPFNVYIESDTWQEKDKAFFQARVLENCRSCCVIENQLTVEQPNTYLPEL
# Protocol: as §1, §2, §3, §4, §5
# Protocol for atrial flutter: In this model, atrial flutter was induced following a Y-shaped surgical lesion comprised of an intercaval incision and a connecting incision across the right atrium. […] Bipolar electrodes also were sutured to the left ventricle for measurement of ventricular excitation threshold (VET) and ventricular relative (VRRP at 2× VET) and effective refractory periods (VERP at 10×VET). The following cardiac electrophysiologic parameters also were measured before test agent administration and at the termination of the study: AH interval, an index of AV nodal conduction; HV interval, an index of His-ventricular conduction time; P-A interval, an index of intra-atrial conduction; and H-EG interval, an index of ventricular conduction; and paced ECG QT interval. AV nodal functional refractory period (AVNFRP) and SA conduction time (SACT) were determined by the introduction of atrial extrastimuli during sinus rhythm, and the monitoring of ventricular response. Electrocardiographic intervals were determined during sinus rhythm; the rate-corrected ECG QTc interval was calculated as: QTc=QT (msec)/√R-R (sec).
# Sustained atrial flutter was initiated in three dogs by electrical burst pacing (6-20 Hz) of the atria; atrial rates ranged from 440-530 cycles/min.
compound,measurement,setting,value
"CC1CCC(C(C)C)C(P(=O)(c2ccccc2)c2ccccc2)C1 (centres unmarked) [Compound D, (2-Isopropyl-5-methylcyclohexyl)diphenylphosphine oxide]",% Block (Guinea Pig Ventricle) IK1,[1],15%
same,inhibition at 3 µM,[2],3%
same,inhibition at 3 µM,[3],25%
same,effect on ventricular function,"atrial flutter; dog, in vivo",no indication of effect on ventricular function
same,time to termination of atrial arrhythmia after test agent administration,atrial flutter; i.v. bolus 1 mg/kg (three dogs) or 10 mg/kg (fourth dog),10 to 120 s
same,atrial rate during atrial flutter,"atrial flutter; i.v. bolus 1 mg/kg (three dogs) or 10 mg/kg (fourth dog), initial rates 450-560 cycles/min",slowed atrial rate
same,termination of atrial arrhythmia,"atrial flutter; i.v. bolus 1 mg/kg, in three of four dogs",terminated the atrial arrhythmia
same,termination of atrial arrhythmia,"atrial flutter; i.v. bolus 10 mg/kg, in the fourth of four dogs",terminated the atrial arrhythmia
